Laboratory results taken from BindingDB's records for doi:10.3109/14756366.2011.591290 (Agri Ibrahim Cecen University, 2012).

Columns and labels:
Test in all cases: CA Activity Assay
Conditions in all cases: pH 7.4; 25 °C
Carbonic anhydrase 1 = Carbonic anhydrase 1 (Homo sapiens, UniProt P00915)
Carbonic anhydrase 2 = Carbonic anhydrase 2 (Homo sapiens, UniProt P00918)
Carbonic anhydrase 6 = Carbonic anhydrase 6 (Homo sapiens, UniProt P23280)
Carbonic anhydrase 6, sequence (P23280 whole entry): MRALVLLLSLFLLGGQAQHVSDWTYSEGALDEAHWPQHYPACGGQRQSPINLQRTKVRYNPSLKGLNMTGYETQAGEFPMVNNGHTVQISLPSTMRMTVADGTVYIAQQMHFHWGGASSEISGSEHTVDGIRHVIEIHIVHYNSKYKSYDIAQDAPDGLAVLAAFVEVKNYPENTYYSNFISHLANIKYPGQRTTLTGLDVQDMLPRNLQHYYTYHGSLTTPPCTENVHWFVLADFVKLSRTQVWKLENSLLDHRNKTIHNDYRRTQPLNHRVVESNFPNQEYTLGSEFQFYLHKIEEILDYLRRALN

Carbonic anhydrase 1, sequence (P00915 whole entry): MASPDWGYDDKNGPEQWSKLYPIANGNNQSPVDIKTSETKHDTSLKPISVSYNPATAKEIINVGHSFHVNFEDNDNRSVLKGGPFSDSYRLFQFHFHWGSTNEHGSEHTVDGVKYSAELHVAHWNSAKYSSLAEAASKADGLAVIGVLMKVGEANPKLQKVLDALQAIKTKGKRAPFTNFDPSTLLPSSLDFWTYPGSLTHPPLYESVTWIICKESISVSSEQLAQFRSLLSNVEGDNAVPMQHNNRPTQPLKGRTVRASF

Compound	Ki (Carbonic anhydrase 1) [µM]	Ki (Carbonic anhydrase 2) [µM]	Ki (Carbonic anhydrase 6) [µM]
NC1CCc2cc(O)c(O)cc2C1 (stereo unspecified)	41.1	0.44	1.15
NC1CCc2c(ccc(O)c2O)C1 (stereo unspecified) [6-Amino-5,6,7,8-tetrahydro-naphthalene-1,2-diol]	45.1	0.38	0.97
NC1Cc2cc(Br)c(Br)cc2C1 [CA inhibitor, 5]		470	0.78
NC1Cc2ccc(Br)cc2C1 (stereo unspecified) [CA inhibitor, 6]	161	143	0.58
